We go through one compound from patent US4871758A, “Pharmacologically active cholinergic compositions, and methods for making same and use thereof in treating disease” (priority 1987, dated 1989).

Test [1] relates to M1 receptors on the intramural inhibitory neurons. Kind of test: lower esophageal sphincter pressure assay in anaesthetized opossum. In kind it is in vivo. As for the experimental part:
The compound (I) obtained according to Example 2 was tested by assay on the lower esophageal sphincter of an opossum anaesthetized with sodium phenobarbitol. In carrying out the assay, the lower esophageal sphincter located between the esophagus and the stomach remains in a state of tonic contraction; therefore, a pressure sensing (manometric) catheter introduced from the animal's mouth into the lumen monitors lower esophageal sphincter pressures by registering a sustained high pressure zone, due to the lumen's myogenic contraction which is independent of neural or hormonal influences. Neural activity and hormones can increase or decrease the sphincter pressure and both excitatory and inhibitory influences can be readily detected.
The intraluminal pressures from the lower esophageal sphincter, esophageal body and the stomach are continuously monitored using a low compliance, waterfilled and continuously perfused catheter anchored in the lower esophageal sphincter so that artifacts due to axial motion can be minimized. See Goyal et al., Gastroenterology, 71, 62-7 (1976). All animals receive bilateral cervical vagotomy to eliminate vagally mediated changes in the sphincter pressure. Nerves to the sphincter are stimulated electrically by electrodes which are either applied to the distal end of the cut vagus nerve or applied intramurally in the sphincter. See Goyal et al., supra, and Rattan et al., Am. J. Physiol., 234, E272-E276 (1978). Reflex relaxation of the sphincter is produced by distension of the esophagus with an intraluminal balloon. Drugs are administered in the arterial supply of the lower esophageal sphincter. This is done by opening the abdominal cavity and cannulating the artery that leads to the lower esophageal sphincter. The compound is injected into the blood supply of the lower esophageal sphincter and its effect therein is determined. The animal's vital signs are monitored and blood pressure is maintained with intravenous infusion of saline. Some drugs are administered intravenously.
In summary, the above-described model permits identification of muscarinic agonists and antagonists in a physiological system.

In test [2] the test system is guinea-pig trachea muscle. Description: guinea-pig trachea contraction. To be noted: muscles have essentially M2 receptors.
[3] abbreviates: lower esophageal sphincter, anaesthetized opossum.

Counter-ions that a name gives are not always drawn.

On to `Cc1ccc(-c2cncn2C)o1` [Compound I, 1-(N-methyl)-5-(5'-methyl-2'-furyl)imidazole, Hydrochloride], for which the M1 receptor selectivity entry in test [1] (M1 versus M2, from sphincter and trachea results) is on record as “highly selective for M1 receptors”. For the same compound, the “blockade of activity by antagonist” value in test [1] (atropine) was “blocked by atropine”. For the same compound, the agonist type result in test [1] (inferred from 80% of full agonist activity) is on record as “partial agonist”. Besides, in test [1] (setting [3]), the “dosage giving peak effect” value is given as 10^-6 mole/kg and the threshold dosage is reported as 10^-8 mole/kg. The “muscarinic receptor subtype effects” value in test [1] (lower esophageal sphincter, anaesthetized opossum, injected into arterial supply of the sphincter) is “only M1 effects”. Further, the “potency in contracting the trachea muscle” value in test [2] is listed as “virtually no potency”.
